Article PMC6572064, “Discovery of 2-(1-(3-(4-Chloroxyphenyl)-3-oxo- propyl)pyrrolidine-3-yl)-1H-benzo[d]imidazole-4-carboxamide: A Potent Poly(ADP-ribose) Polymerase (PARP) Inhibitor for Treatment of Cancer” (Molecules, 2019)
Where two headings read alike, the source gives them in different places.

Tests used:
[1] = test system: MDA-MB-436 (a BRCA-1-mutated breast cancer cell line); test: Cell proliferation assay, three-day, CellTiter-Glo, MDA-MB-436; format: cell-based; conditions: for inhibition at 0.00508 µM / inhibition at 0.0152 µM / inhibition at 0.0457 µM / inhibition at 0.41 µM / inhibition at 1.23 µM / inhibition at 3.7 µM / inhibition at 11.11 µM / inhibition at 33.33 µM / inhibition at 100 µM / IC50: Homo sapiens; for inhibition at 0.00508 µM: MDA-MB-436, MDA-MB-436, Conc. 0.00508 uM; for inhibition at 0.0152 µM: MDA-MB-436, MDA-MB-436, Conc. 0.0152 uM; for inhibition at 0.0457 µM: MDA-MB-436, MDA-MB-436, Conc. 0.0457 uM; for inhibition at 0.41 µM: MDA-MB-436, MDA-MB-436, Conc. 0.41 uM; for inhibition at 1.23 µM: MDA-MB-436, MDA-MB-436, Conc. 1.23 uM; for inhibition at 3.7 µM: MDA-MB-436, MDA-MB-436, Conc. 3.70 uM; for inhibition at 11.11 µM: MDA-MB-436, MDA-MB-436, Conc. 11.11 uM; for inhibition at 33.33 µM: MDA-MB-436, MDA-MB-436, Conc. 33.33 uM; for inhibition at 100 µM: MDA-MB-436, MDA-MB-436, Conc. 100.00 uM
In short: (§1)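 Luminescent ATP read-out (CellTiter-Glo, 60 min at room temperature) quantified viability after a 72 h compound exposure at 37 °C, 5% CO2. Compounds, diluted from DMSO stocks into growth medium, were added to cells plated the previous day.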

PARP-2 = target: T1, PARP-2 (Homo sapiens, UniProt Q9UGN5); test: PARP-2 inhibition assay (PARP-2 Chemiluminescent Assay Kit, BPS Bioscience); format: biochemical; conditions: for inhibition at 0.01 µM: 10 nM compound
T1 construct: purchased BPS Bioscience 80552
T1 sequence (Q9UGN5 whole entry): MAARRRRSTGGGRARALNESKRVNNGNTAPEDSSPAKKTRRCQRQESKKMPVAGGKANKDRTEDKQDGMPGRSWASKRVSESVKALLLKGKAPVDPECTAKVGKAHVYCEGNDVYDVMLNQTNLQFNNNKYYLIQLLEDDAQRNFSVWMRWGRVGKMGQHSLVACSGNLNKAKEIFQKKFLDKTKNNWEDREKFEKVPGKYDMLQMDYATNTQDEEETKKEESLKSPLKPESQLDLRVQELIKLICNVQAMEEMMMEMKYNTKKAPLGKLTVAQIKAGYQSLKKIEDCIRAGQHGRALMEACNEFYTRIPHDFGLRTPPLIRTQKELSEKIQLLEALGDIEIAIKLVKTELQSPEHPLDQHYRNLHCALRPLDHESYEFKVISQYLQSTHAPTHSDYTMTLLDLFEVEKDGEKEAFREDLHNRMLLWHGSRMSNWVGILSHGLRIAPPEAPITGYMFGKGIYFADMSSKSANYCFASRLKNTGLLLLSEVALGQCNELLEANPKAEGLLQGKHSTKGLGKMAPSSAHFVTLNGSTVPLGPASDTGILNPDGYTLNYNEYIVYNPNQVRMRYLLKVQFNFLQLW
Protocol: (§2) The PARP-1 and PARP-2 inhibition assays were performed in outsourcing, by a CRO company, Shanghai Medicilon Inc. (Shanghai, China). […] Briefly, PARP-1 or PARP-2 biotinylated substrate was incubated with compounds or solvent control at varying concentrations and an assay buffer containing the PARP-1 or PARP-2 enzyme.

[2] = test system: CAPAN-1 (a BRCA-2-mutated pancreatic cancer cell line); test: Cell proliferation assay, three-day, CellTiter-Glo, CAPAN-1; format: cell-based; conditions: for IC50 / inhibition at 0.00508 µM / inhibition at 0.0152 µM / inhibition at 0.0457 µM / inhibition at […] / inhibition at 0.41 µM / inhibition at 1.23 µM / inhibition at 3.7 µM / inhibition at 11.11 µM / inhibition at 33.33 µM / inhibition at 100 µM: Homo sapiens; for inhibition at 0.00508 µM: CAPAN-1, 0.00508 uM; for inhibition at 0.0152 µM: CAPAN-1, 0.0152 uM; for inhibition at 0.0457 µM: CAPAN-1, 0.0457 uM; for inhibition at […]: CAPAN-1, 0.14 uM; for inhibition at 0.41 µM: CAPAN-1, 0.41 uM; for inhibition at 1.23 µM: CAPAN-1, 1.23 uM; for inhibition at 3.7 µM: CAPAN-1, 3.70 uM; for inhibition at 11.11 µM: CAPAN-1, 11.11 uM; for inhibition at 33.33 µM: CAPAN-1, 33.33 uM; for inhibition at 100 µM: CAPAN-1, 100.00 uM
In short: as §1

PARP-1 = target: T2, PARP-1 (Homo sapiens, UniProt P09874); test: PARP-1 inhibition assay (PARP-1 Chemiluminescent Assay Kit, BPS Bioscience); format: biochemical; conditions: for inhibition at 0.01 µM: 10 nM compound
T2 construct: purchased BPS Bioscience 80569
T2 sequence (P09874 whole entry): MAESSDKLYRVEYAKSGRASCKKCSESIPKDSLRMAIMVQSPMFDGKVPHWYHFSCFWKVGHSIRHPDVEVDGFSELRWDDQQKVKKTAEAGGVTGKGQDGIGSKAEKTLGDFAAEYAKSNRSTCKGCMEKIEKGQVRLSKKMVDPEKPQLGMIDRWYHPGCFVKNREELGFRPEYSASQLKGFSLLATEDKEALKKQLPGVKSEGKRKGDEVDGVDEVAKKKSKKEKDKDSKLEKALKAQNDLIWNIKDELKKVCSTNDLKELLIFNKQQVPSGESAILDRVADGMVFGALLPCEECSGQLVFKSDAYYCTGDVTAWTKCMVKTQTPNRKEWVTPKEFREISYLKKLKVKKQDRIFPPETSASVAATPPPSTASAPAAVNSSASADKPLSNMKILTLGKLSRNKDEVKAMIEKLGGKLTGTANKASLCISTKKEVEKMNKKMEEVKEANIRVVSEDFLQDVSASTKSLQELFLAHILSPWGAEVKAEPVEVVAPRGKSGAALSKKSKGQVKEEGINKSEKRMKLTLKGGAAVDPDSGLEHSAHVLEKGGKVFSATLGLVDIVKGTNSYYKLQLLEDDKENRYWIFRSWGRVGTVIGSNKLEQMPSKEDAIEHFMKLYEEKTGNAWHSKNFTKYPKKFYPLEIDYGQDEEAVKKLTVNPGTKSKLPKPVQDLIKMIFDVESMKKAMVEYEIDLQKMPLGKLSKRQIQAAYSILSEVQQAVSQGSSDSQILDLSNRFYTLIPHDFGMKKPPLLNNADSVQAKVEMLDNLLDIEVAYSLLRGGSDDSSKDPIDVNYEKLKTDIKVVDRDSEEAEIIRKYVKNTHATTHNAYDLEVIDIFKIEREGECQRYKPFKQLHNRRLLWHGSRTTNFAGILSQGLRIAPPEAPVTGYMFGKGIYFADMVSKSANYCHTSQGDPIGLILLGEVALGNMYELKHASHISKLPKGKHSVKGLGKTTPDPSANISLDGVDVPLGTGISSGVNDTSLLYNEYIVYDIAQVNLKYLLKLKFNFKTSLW
Protocol: as §2

- IC50 ([1]; MDA-MB-436, 72 h, CellTiter-Glo, read-out: MDA-MB-436 IC50): 17.4 µM
- IC50 ([1]; MDA-MB-436, 72 h, supplement Summary sheet, read-out: IC50): 17.4 µM
- IC50 ([1]; MDA-MB-436, curve fit list, no unit in the cell, concentration in uM, read-out: IC50): 17.4 µM
- inhibition at 0.01 µM (PARP-2; supplement sheet, read-out: 10 nM inhibition% PAPR-2): 65.5%
- inhibition at 0.01 µM (PARP-2; read-out: PARP-2 Inhibition % (10 nM)): 65.6%
- IC50 (PARP-2; read-out: PARP-2 IC50): 0.0042 µM
- IC50 (PARP-2; supplement sheet, read-out: IC50 PAPR-2): 0.00422 µM
- IC50 ([2]; CAPAN-1, 72 h, CellTiter-Glo, read-out: CAPAN-1 IC50): 11.4 µM
- IC50 ([2]; CAPAN-1, 72 h, supplement Summary sheet, read-out: IC50): 11.4 µM
- IC50 ([2]; CAPAN-1, curve-fit output, concentrations in uM, read-out: IC50): 11.4 µM
- inhibition at 0.01 µM (PARP-1; supplement sheet, read-out: 10 nM inhibition% PAPR-1): 65.7%
- inhibition at 0.01 µM (PARP-1; read-out: PARP-1 Inhibition % (10 nM)): 65.7%
- IC50 (PARP-1; read-out: PARP-1 IC50): 0.0039 µM
- IC50 (PARP-1; supplement sheet, read-out: IC50 PAPR-1): 0.00389 µM
SMILES: NC(=O)c1cccc2[nH]c(C3CCN(CCC(=O)c4ccc(Cl)cc4)C3)nc12 (centres unmarked) [Compound 5cj]
- inhibition at 0.00508 µM ([1]; replicate 1, read-out: Inh % 1): -7.9%
- inhibition at 0.00508 µM ([1]; replicate 2, read-out: Inh % 2): -1.6%
- inhibition at 0.0152 µM ([1]; replicate 1, read-out: Inh % 1): -3%
- inhibition at 0.0152 µM ([1]; replicate 2, read-out: Inh % 2): -9.8%
- inhibition at 0.0457 µM ([1]; replicate 1, read-out: Inh % 1): -14.2%
- inhibition at 0.0457 µM ([1]; replicate 2, read-out: Inh % 2): -14.3%
- inhibition at 0.41 µM ([1]; replicate 1, read-out: Inh % 1): -16.8%
- inhibition at 0.41 µM ([1]; replicate 2, read-out: Inh % 2): -14.6%
- inhibition at 1.23 µM ([1]; replicate 1, read-out: Inh % 1): -8.7%
- inhibition at 1.23 µM ([1]; replicate 2, read-out: Inh % 2): -14.5%
- inhibition at 3.7 µM ([1]; replicate 1, read-out: Inh % 1): -10.6%
- inhibition at 3.7 µM ([1]; replicate 2, read-out: Inh % 2): -13.6%
- inhibition at 11.11 µM ([1]; replicate 1, read-out: Inh % 1): 10.8%
- inhibition at 11.11 µM ([1]; replicate 2, read-out: Inh % 2): 8.2%
- inhibition at 33.33 µM ([1]; replicate 1, read-out: Inh % 1): 93.8%
- inhibition at 33.33 µM ([1]; replicate 2, read-out: Inh % 2): 82.1%
- inhibition at 100 µM ([1]; replicate 1, read-out: Inh % 1): 99.7%
- inhibition at 100 µM ([1]; replicate 2, read-out: Inh % 2): 98.9%
- LogIC50 ([1]; MDA-MB-436, curve fit on Log (uM) concentrations): 1.241
- Bottom ([1]; MDA-MB-436, curve fit parameter (Inh %)): -11.12
- Top ([1]; MDA-MB-436, curve fit parameter (Inh %), '= 100.0' is a constrained value): 99.53
- LogIC50 ([2]; CAPAN-1, curve-fit output, Log (uM)): 1.057
- inhibition at 0.00508 µM ([2]; replicate 1, read-out: Inh % 1): 9.5%
- inhibition at 0.00508 µM ([2]; replicate 2, read-out: Inh % 2): -1.4%
- inhibition at 0.0152 µM ([2]; replicate 1, read-out: Inh % 1): 3.1%
- inhibition at 0.0152 µM ([2]; replicate 2, read-out: Inh % 2): -2.2%
- inhibition at 0.0457 µM ([2]; replicate 1, read-out: Inh % 1): 3.3%
- inhibition at 0.0457 µM ([2]; replicate 2, read-out: Inh % 2): 3.4%
- inhibition at […] ([2]; replicate 1, read-out: Inh % 1): 13.7%
- inhibition at […] ([2]; replicate 2, read-out: Inh % 2): -6.2%
- inhibition at 0.41 µM ([2]; replicate 1, read-out: Inh % 1): 2.9%
- inhibition at 0.41 µM ([2]; replicate 2, read-out: Inh % 2): 7.7%
- inhibition at 1.23 µM ([2]; replicate 1, read-out: Inh % 1): -2.6%
- inhibition at 1.23 µM ([2]; replicate 2, read-out: Inh % 2): 0.5%
- inhibition at 3.7 µM ([2]; replicate 1, read-out: Inh % 1): 7.7%
- inhibition at 3.7 µM ([2]; replicate 2, read-out: Inh % 2): 2.2%
- inhibition at 11.11 µM ([2]; replicate 1, read-out: Inh % 1): 54.1%
- inhibition at 11.11 µM ([2]; replicate 2, read-out: Inh % 2): 45.1%
- inhibition at 33.33 µM ([2]; replicate 1, read-out: Inh % 1): 97.9%
- inhibition at 33.33 µM ([2]; replicate 2, read-out: Inh % 2): 96.8%
- inhibition at 100 µM ([2]; replicate 1, read-out: Inh % 1): 99.6%
- inhibition at 100 µM ([2]; replicate 2, read-out: Inh % 2): 98.9%
